# Source: patent publication US11090319B2, “Therapeutic uses of pharmaceutical compositions comprising cyclic boronic acid ester derivatives” (Melinta Subsidiary Corp., priority 2010, dated 2021)
# pIC50: −log10 of the molar value.
# Tests used:
# [1] = biological target: CTX-M-15, lysate of KP1009 (Escherichia coli, UniProt Q9EXV5); test: Inhibition of ceftazidime hydrolysis by bacterial lysate
# [2] = tested on: SM1000 Serratia marcescens SME-2; test: Checkerboard assay, biapenem potentiation; conditions: Biapenem MIC 8-fold; SM1000 SME-2 class A
# OXA-10, lysate of KP1007 = OXA-10, lysate of KP1007 (Pseudomonas aeruginosa, UniProt P14489); test: Inhibition of ceftazidime hydrolysis by bacterial lysate
# [3] = tested on: KP1008 Klebsiella pneumoniae KPC-2; test: Checkerboard assay, biapenem potentiation; conditions: Biapenem MIC 8-fold; KP1008 KPC-2 class A
# [4] = tested on: KP1014 Klebsiella pneumoniae Vim-1; test: Ceftazidime MIC with fixed concentration of BLI; type: cell-based; conditions: derivative at 10 μg/mL; KP1014 Vim-1
# Protocol: (§1) Next, ceftazidime potentiation activity of several cyclic boronic acid ester derivatives was tested using a larger panel of strains expressing β-lactamase hydrolyzing enzymes. Ceftazidime MICs were determined alone and in the presence of fixed concentrations of various cyclic boronic acid ester derivatives.
# [5] = tested on: AB1052 Acinetobacter baumannii OXA-24; test: Ceftazidime MIC with fixed concentration of BLI; type: cell-based; conditions: derivative at 10 μg/mL; AB1052 OXA-24
# Protocol: as §1
# KPC-3, lysate of EC1007 = KPC-3, lysate of EC1007 (Klebsiella pneumoniae, UniProt Q9F663, H272Y); test: Inhibition of ceftazidime hydrolysis by bacterial lysate
# Sequence of KPC-3, lysate of EC1007 (Q9F663 whole entry H272Y, looked up): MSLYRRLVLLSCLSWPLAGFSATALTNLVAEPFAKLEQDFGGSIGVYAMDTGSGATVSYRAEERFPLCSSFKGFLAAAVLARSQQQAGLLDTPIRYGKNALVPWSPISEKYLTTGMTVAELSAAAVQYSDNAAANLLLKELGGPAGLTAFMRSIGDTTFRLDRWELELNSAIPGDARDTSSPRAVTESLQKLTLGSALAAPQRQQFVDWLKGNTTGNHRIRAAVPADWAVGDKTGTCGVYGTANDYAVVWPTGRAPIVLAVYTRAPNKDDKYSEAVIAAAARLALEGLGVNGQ
# Sequence of OXA-10, lysate of KP1007 (P14489 20-266): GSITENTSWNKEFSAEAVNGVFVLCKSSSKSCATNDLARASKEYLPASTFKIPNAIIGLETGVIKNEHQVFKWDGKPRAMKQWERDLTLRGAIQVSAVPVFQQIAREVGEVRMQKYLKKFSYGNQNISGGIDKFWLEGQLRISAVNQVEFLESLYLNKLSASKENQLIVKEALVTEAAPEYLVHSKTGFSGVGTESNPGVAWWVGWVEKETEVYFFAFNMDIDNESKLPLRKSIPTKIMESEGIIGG
# Sequence of CTX-M-15, lysate of KP1009 (Q9EXV5 entry or part of it): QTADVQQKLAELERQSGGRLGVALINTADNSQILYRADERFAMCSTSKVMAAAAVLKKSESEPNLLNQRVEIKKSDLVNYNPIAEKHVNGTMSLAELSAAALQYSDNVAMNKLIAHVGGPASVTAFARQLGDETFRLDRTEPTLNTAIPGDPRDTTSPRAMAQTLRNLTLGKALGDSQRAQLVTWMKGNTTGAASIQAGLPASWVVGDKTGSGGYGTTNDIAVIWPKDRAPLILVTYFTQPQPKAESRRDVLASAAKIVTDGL
smiles,measurement,setting,value
"CC(=O)N[C@H]1CCC(CC(=O)O)OB1O (stereo partly drawn) [Compound 3, 2-((3R)-3-acetamido-2-hydroxy-1,2-oxaborinan-6-yl)acetic acid]",pIC50,[1],< 5.33
same,MPC8,[2],Y (MPC8 of 0.16 μg/mL to 1 μg/mL)
same,pIC50,"OXA-10, lysate of KP1007",< 5.33
same,MPC8,[3],X (MPC8 of less than 0.16 μg/mL)
same,Ceftazidime MIC with cyclic boronic acid ester derivative,[4],Z (MIC of greater than 8 μg/mL)
same,Ceftazidime MIC with cyclic boronic acid ester derivative,[5],Z (MIC of greater than 8 μg/mL)
"O=C(O)CC1CC[C@H](NC(=O)C2CC2)B(O)O1 (stereo partly drawn) [Compound 4, 2-((3R)-3-(cyclopropanecarboxamido)-2-hydroxy-1,2-oxaborinan-6-yl)acetic acid]",pIC50,[1],< 5.38
same,MPC8,[2],X (MPC8 of less than 0.16 μg/mL)
same,pIC50,"OXA-10, lysate of KP1007",< 5.38
same,MPC8,[3],X (MPC8 of less than 0.16 μg/mL)
same,pIC50,"KPC-3, lysate of EC1007",> 6.38
same,Ceftazidime MIC with cyclic boronic acid ester derivative,[4],Z (MIC of greater than 8 μg/mL)
same,Ceftazidime MIC with cyclic boronic acid ester derivative,[5],Z (MIC of greater than 8 μg/mL)
"Cl.N[C@H]1CCC(CC(=O)O)OB1O (stereo partly drawn) [Compound 7, 2-((3R)-3-amino-2-hydroxy-1,2-oxaborinan-6-yl)acetic acid hydrochloride]",pIC50,[1],5.32 to 6.32
same,pIC50,"OXA-10, lysate of KP1007",< 5.32
same,pIC50,"KPC-3, lysate of EC1007",< 5.32
